Source: patent US10662477B2, “Biomarkers and methods to predict response to inhibitors and uses thereof” (Millennium Pharmaceuticals, Inc., priority 2012, dated 2020)
Where two headings read alike, the source gives them in different places.

Key:
NSCLC patients [1] = experiment: BATTLE clinical trial Erlotinib arm, progression-free survival by Erlotinib PLSR model group; format: in vivo, human
tumor xenografts = experiment: Xenograft models of MLN4924 treatment, average plasma concentration needed for tumor stasis, sensitivity rank; format: in vivo, rats or mice; details: for C avg at stasis: average plasma concentration needed to reach tumor stasis; for Sensitivity Rank: rank of 1 is most sensitive, 16 is least sensitive
human melanoma tumors = experiment: Melanoma explants (human tumor xenografts) in mice treated with MLN4924, tumor growth; format: in vivo; details: subcutaneous treatment
Kidney cancer [2] = details: phase III clinical trial, cited from earlier work
Kidney cancer [3] = experiment: Sorafenib phase III clinical trial on Kidney cancer; format: in vivo, human; details: Sorafenib vs. placebo
NSCLC patients [4] = experiment: BATTLE clinical trial Sorafenib arm, progression-free survival by Sorafenib PLSR model group; format: in vivo, human

C#Cc1cccc(Nc2ncnc3cc(OCCOC)c(OCCOC)cc23)c1 [Erlotinib, N-(3-ethynylphenyl)-6,7-bis(2-methoxyethoxy) quinazolin-4-amine]
PFS (NSCLC patients [1]; Erlotinib-resistant patients (Erlotinib PLSR signature), BATTLE Erlotinib arm): 1.84 month
median PFS (NSCLC patients [1]; Erlotinib-sensitive patient group (Erlotinib PLSR signature), BATTLE Erlotinib arm): 3.84 month
Hazard ratio (NSCLC patients [1]; Erlotinib-sensitive vs Erlotinib-resistant patient group, PFS, p-value 0.09): 0.43

NS(=O)(=O)OC[C@@H]1C[C@@H](n2ccc3c(N[C@H]4CCc5ccccc54)ncnc32)C[C@@H]1O [MLN4924, ((1S,2S,4R)-4-{4-[(1S)-2,3-dihydro-1H-inden-1-ylamino]-7H-pyrrolo[2,3-d]pyrimidin-7-yl}-2-hydroxycyclopentyl)methyl sulphamate]
C avg at stasis (tumor xenografts; A375 xenograft, melanoma): 6.837 µg/mL
Sensitivity Rank (tumor xenografts; A375 xenograft): 7
C avg at stasis (tumor xenografts; DLD-1 xenograft, colon adenocarcinoma): 17.476 µg/mL
Sensitivity Rank (tumor xenografts; DLD-1 xenograft): 16
C avg at stasis (tumor xenografts; DU-145 xenograft, prostate cancer): 9.365 µg/mL
Sensitivity Rank (tumor xenografts; DU-145 xenograft): 11
C avg at stasis (tumor xenografts; HCT116 (grown in mouse) xenograft, colorectal carcinoma): 1.983 µg/mL
Sensitivity Rank (tumor xenografts; HCT116 (grown in mouse) xenograft): 2
C avg at stasis (tumor xenografts; HCT116 (grown in rat) xenograft, colorectal carcinoma): 1.490 µg/mL
Sensitivity Rank (tumor xenografts; HCT116 (grown in rat) xenograft): 1
C avg at stasis (tumor xenografts; HL-60 xenograft, promyelocytic leukemia): 2.023 µg/mL
Sensitivity Rank (tumor xenografts; HL-60 xenograft): 3
C avg at stasis (tumor xenografts; HT29 xenograft, colon adenocarcinoma): 7.171 µg/mL
Sensitivity Rank (tumor xenografts; HT29 xenograft): 9
C avg at stasis (tumor xenografts; NCI-H69 xenograft, small cell lung cancer): 6.868 µg/mL
Sensitivity Rank (tumor xenografts; NCI-H69 xenograft): 8
C avg at stasis (tumor xenografts; NCI-H82 xenograft, small cell lung cancer): 5.316 µg/mL
Sensitivity Rank (tumor xenografts; NCI-H82 xenograft): 5
C avg at stasis (tumor xenografts; NCI-H322M xenograft, non-small cell lung carcinoma): 14.722 µg/mL
Sensitivity Rank (tumor xenografts; NCI-H322M xenograft): 14
C avg at stasis (tumor xenografts; NCI-H460 xenograft, non-small cell lung carcinoma): 17.070 µg/mL
Sensitivity Rank (tumor xenografts; NCI-H460 xenograft): 15
C avg at stasis (tumor xenografts; PC3 xenograft, prostate cancer): 5.968 µg/mL
Sensitivity Rank (tumor xenografts; PC3 xenograft): 6
C avg at stasis (tumor xenografts; PHTX-02B xenograft, Breast cancer): 3.691 µg/mL
Sensitivity Rank (tumor xenografts; PHTX-02B xenograft): 4
C avg at stasis (tumor xenografts; PHTX-50M xenograft, melanoma): 8.501 µg/mL
Sensitivity Rank (tumor xenografts; PHTX-50M xenograft): 10
C avg at stasis (tumor xenografts; PHTX-51M xenograft, melanoma): 11.588 µg/mL
Sensitivity Rank (tumor xenografts; PHTX-51M xenograft): 13
C avg at stasis (tumor xenografts; SKOV3 xenograft, ovarian carcinoma): 9.890 µg/mL
Sensitivity Rank (tumor xenografts; SKOV3 xenograft): 12
Experimental Result with MLN4924 treatment (human melanoma tumors; melanoma explant 1, tumor growth in mice): Sensitive
Experimental Result with MLN4924 treatment (human melanoma tumors; melanoma explant 2, tumor growth in mice): Sensitive
Experimental Result with MLN4924 treatment (human melanoma tumors; melanoma explant 3, tumor growth in mice): Sensitive
Experimental Result with MLN4924 treatment (human melanoma tumors; melanoma explant 4, tumor growth in mice): Resistant
Experimental Result with MLN4924 treatment (human melanoma tumors; melanoma explant 5, tumor growth in mice): Resistant
Experimental Result with MLN4924 treatment (human melanoma tumors; melanoma explant 6, tumor growth in mice): Resistant
Experimental Result with MLN4924 treatment (human melanoma tumors; melanoma explant 7, tumor growth in mice): Resistant
Experimental Result with MLN4924 treatment (human melanoma tumors; melanoma explant 8, tumor growth in mice): Resistant
Experimental Result with MLN4924 treatment (human melanoma tumors; melanoma explant 9, tumor growth in mice): Resistant
Experimental Result with MLN4924 treatment (human melanoma tumors; melanoma explant 10, tumor growth in mice): Resistant

CNC(=O)c1cc(Oc2ccc(NC(=O)Nc3ccc(Cl)c(C(F)(F)F)c3)cc2)ccn1 [Sorafenib]
median survival (Kidney cancer [2]; Sorafenib arm (placebo 84 days)): 167 days
median survival (Kidney cancer [2]; Sorafenib arm, days converted to months (placebo 2.80)): 5.57 months
PFS benefit (Kidney cancer [3]): 2.77 month
median PFS survival (NSCLC patients [4]; marker-insensitive group (Sorafenib model), BATTLE Sorafenib arm): 1.87 months
median PFS survival (NSCLC patients [4]; marker-sensitive group (Sorafenib model), BATTLE Sorafenib arm): 4.53 months
PFS survival benefit (NSCLC patients [4]; marker-sensitive group vs marker-resistant group, BATTLE Sorafenib arm): 2.66 months
Hazard-ratio (NSCLC patients [4]; marker-sensitive vs marker-resistant group, PFS, p-value 0.006): 0.32
